Read-outs that look alike come from different tables or passages of the source.
Tests used:
IKs currents = biological target: T1, IKs currents (Homo sapiens, UniProt P51787); settings: cited from earlier work
T1 construct: expressed in transfected cells; host or cells: Xenopus oocytes injected with cRNA (pSP64 poly(A) constructs)

rat ileum = test: Rat ileum GI contractility (isometric muscle contraction); settings: for Deflection Magnitude, percentage change from control / Slow Wave Amplitude, percentage change from control / Slow Wave Frequency, percentage change from control: n = 5
Experimental: (§1) The ileum was harvested and placed in warmed (37° C.) Krebs […] buffer and oxygenated (95% O2 and 5% CO2). Segments approximately 4.5 cm long were placed on a transducer (Gilson Instruments) and a preload of 2 gm was applied. The tissue was placed in a chamber and bathed in Tyrode's solution (37.5° C.) and gassed with 95% O2 and 5% CO2. Muscle contractions were measured isometrically. After stable contractions were obtained, a study compound was added to the tissue bath and recordings made until a new steady state of contraction was obtained. Following a washout period, contractions were recorded during a new steady state period, then the procedure repeated with at a second dose of the drug being evaluated. Changes in contraction magnitude were recorded as the percentage change from baseline. This procedure is a modification of the technique described by Van Nueten and associates (Van Nueten, et al., Inhibition of dopamine receptors in the stomach: an explanation of the gastrokinetic properties of domperidone. Life Sciences 1978, 23:453-458).

rat colon = test: Rat colon GI contractility (deflection magnitude); settings: n = 5 per group
Experimental: as §1, with “23:453-458). […] A segment of rat colon was suspended in a constant temperature bath as described above, and the baseline parameters measured oxygenated Tyrode's solution without erythromycin or chiral isolates.” for “23:453-458).”

T1 sequence (P51787 whole entry): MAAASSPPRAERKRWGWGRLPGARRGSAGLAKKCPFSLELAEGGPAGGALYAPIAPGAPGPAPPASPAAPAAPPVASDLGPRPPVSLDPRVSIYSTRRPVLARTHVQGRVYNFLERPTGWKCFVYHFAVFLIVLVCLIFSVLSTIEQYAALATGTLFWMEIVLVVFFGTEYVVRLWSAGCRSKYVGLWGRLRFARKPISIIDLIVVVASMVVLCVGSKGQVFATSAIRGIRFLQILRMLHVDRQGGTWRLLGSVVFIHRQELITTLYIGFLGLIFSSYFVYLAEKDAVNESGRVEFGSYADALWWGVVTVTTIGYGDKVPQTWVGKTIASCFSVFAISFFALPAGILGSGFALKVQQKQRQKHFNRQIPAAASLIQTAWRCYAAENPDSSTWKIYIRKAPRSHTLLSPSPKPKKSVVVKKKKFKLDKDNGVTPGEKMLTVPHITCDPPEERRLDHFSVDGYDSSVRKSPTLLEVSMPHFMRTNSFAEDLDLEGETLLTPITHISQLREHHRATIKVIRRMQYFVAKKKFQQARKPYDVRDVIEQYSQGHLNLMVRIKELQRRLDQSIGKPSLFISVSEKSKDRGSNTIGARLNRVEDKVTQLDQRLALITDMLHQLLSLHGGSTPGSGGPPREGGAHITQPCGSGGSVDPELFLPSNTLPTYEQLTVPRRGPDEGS

Compound: C=C[C@H]1C[N@@]2CC[C@H]1C[C@@H]2[C@@H](O)c1ccnc2ccc(OC)cc12 [quinidine]
- Reduction of IKs currents (IKs currents; quinidine 10^−4 M): 52%
- Reduction of IKs currents (IKs currents; quinidine 10^−6 M): 14%

Compound: Erythromycin
- Effect on slow contractile wave amplitude, slow wave frequency and magnitude of deflection, in words (rat ileum; 10^−7 M to 10^−5 M): dose-related increase
- Deflection Magnitude, percentage change from control (rat ileum; erythromycin 10^−5 M): 33%
- Slow Wave Amplitude, percentage change from control (rat ileum; erythromycin 10^−5 M): 17%
- Slow Wave Frequency, percentage change from control (rat ileum; erythromycin 10^−5 M): 27%
- Deflection Magnitude, percentage change from control (rat ileum; erythromycin 10^−6 M): 22%
- Slow Wave Amplitude, percentage change from control (rat ileum; erythromycin 10^−6 M): 15%
- Slow Wave Frequency, percentage change from control (rat ileum; erythromycin 10^−6 M): 21%
- Deflection Magnitude, percentage change from control (rat ileum; erythromycin 10^−7 M): 14%
- Slow Wave Amplitude, percentage change from control (rat ileum; erythromycin 10^−7 M): 12%
- Slow Wave Frequency, percentage change from control (rat ileum; erythromycin 10^−7 M): 14%
- Percent Change in Deflection Magnitude, change from control (rat colon; 10^−5 M): 95%
- Percent Change in Deflection Magnitude, change from control (rat colon; 10^−6 M): 70%
- Percent Change in Deflection Magnitude, change from control (rat colon; 10^−7 M): 33%

— patent publication US20060074032A1 (Academic Pharmaceuticals, Inc., priority 2000, published 2006)
